The values below come from US10144732B2 (BIOGEN MA INC., priority 2014, dated 2018).

For orientation: IC50 means the concentration that gives 50% inhibition.

Structures are written as SMILES. Several values for one entry are separate records, joined by “and”; a condition that tells them apart may be missing. Equal entries are not always repeated. Structures can show the parent of a compound that is named as a salt. Some results are limits rather than exact numbers.

In the assay the target is T1, Human ATX protein (Homo sapiens, UniProt Q13822).
T1 construct: made in house
Nature of the assay: ATX biochemical assay (FRET, FS-3 substrate). The note with it: FRET assay, FS-3 2 μM, ATX 1.0 μg/mL, 30 minutes preincubation, 2 hours reaction at room temperature; read-out: IC50. In outline:
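In-house human ATX (1.0 μg/mL final) was preincubated with compound for 30 min at room temperature in Tris buffer pH 7.4 with 1 mg/mL fatty acid free-BSA. FS-3 substrate (2 μM final) was then hydrolysed for 2 hours at room temperature, protected from light, and read as fluorescence at ex 485/em 538 nm.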
Turning to `CCOC(=O)[C@H]1CC[C@H](CC(=O)N2CCc3c(C(F)(F)F)nn(C4CCCCC4)c3C2)CC1` [Example 1-24, trans-Ethyl 4-(2-(1-cyclohexyl-3-(trifluoromethyl)-4,5-dihydro-1H-pyrazolo[3,4-c]pyridin-6(7H)-yl)-2-oxoethyl)cyclohexanecarboxylate], the IC50 was in the range of 250 to 500 nM.
With `O=C(O)C1CCC(CC(=O)N2CCc3c(C(F)(F)F)nn(Cc4cccc(F)c4)c3C2)CC1` (mixture of isomers) [Example 6-1, 4-(2-(1-(3-Fluorobenzyl)-3-(trifluoromethyl)-4,5-dihydro-1H-pyrazolo[3,4-c]pyridin-6(7H)-yl)-2-oxoethyl)cyclohexanecarboxylic acid], the IC50 was at most 100 nM.
As to `CCCC1CC(CC(=O)N2CCc3c(C(F)(F)F)nn(Cc4ccc(F)cc4)c3C2)CCN1C(=O)OC(C)(C)C` (centres unmarked) [Example 8-9, tert-Butyl 4-(2-(1-(4-fluorobenzyl)-3-(trifluoromethyl)-4,5-dihydro-1H-pyrazolo[3,4-c]pyridin-6(7H)-yl)-2-oxoethyl)-2-propylpiperidine-1-carboxylate], the IC50 is at most 100 nM.
`O=C(C[C@H]1CC[C@H](C(=O)O)CC1)N1CCc2c(C(F)(F)F)nn(Cc3cncnc3)c2C1` [Example 5-29, trans-4-(2-Oxo-2-(1-(pyrimidin-5-ylmethyl)-3-(trifluoromethyl)-4,5-dihydro-1H-pyrazolo[3,4-c]pyridin-6(7H)-yl)ethyl)cyclohexanecarboxylic acid]: the IC50 is > 500 nM and ≤ 10000 nM.
As to `CC(C(=O)N1CCc2c(C(F)(F)F)nn(Cc3ccc(Cl)cc3F)c2C1)C1CCC(C(=O)O)CC1` (centres unmarked) [Example 6-4, 4-(1-(1-(4-Chloro-2-fluorobenzyl)-3-(trifluoromethyl)-4,5-dihydro-1H-pyrazolo[3,4-c]pyridin-6(7H)-yl)-1-oxopropan-2-yl)cyclohexanecarboxylic acid], the IC50 was at most 100 nM.
As for `O=C(C[C@H]1CC[C@H](C(=O)O)CC1)N1CCc2c(C(F)F)nn(Cc3ccc(F)cc3)c2C1` [Example 5-44, trans-4-(2-(3-(Difluoromethyl)-1-(4-fluorobenzyl)-4,5-dihydro-1H-pyrazolo[3,4-c]pyridin-6(7H)-yl)-2-oxoethyl)cyclohexanecarboxylic acid], the half-inhibitory concentration (IC50) was at most 100 nM.
As for `CC(C)(C)OC(=O)N1CC(CC(=O)N2CCc3c(C(F)(F)F)nn(Cc4ccc(Cl)cc4F)c3C2)C[C@H]1C(=O)O` (stereo partly drawn) [Example 5-18, (2S)-1-(tert-Butoxycarbonyl)-4-(2-(1-(4-chloro-2-fluorobenzyl)-3-(trifluoromethyl)-4,5-dihydro-1H-pyrazolo[3,4-c]pyridin-6(7H)-yl)-2-oxoethyl)pyrrolidine-2-carboxylic acid], the IC50 was at most 100 nM.
Regarding `O=C(C[C@H]1CC[C@H](C(=O)O)CC1)N1CCc2c(C(F)(F)F)nn(Cc3ccc(F)cc3F)c2C1` [Example 5-30, trans-4-(2-(1-(2,4-Difluorobenzyl)-3-(trifluoromethyl)-4,5-dihydro-1H-pyrazolo[3,4-c]pyridin-6(7H)-yl)-2-oxoethyl)cyclohexanecarboxylic acid], the IC50 is at most 100 nM.
Turning to `CN(C(=O)N1CCc2c(C(F)(F)F)nn(Cc3ccc(Cl)cc3F)c2C1)[C@H]1CC[C@@H](C(=O)O)CC1` [Example 5-9, cis-4-(1-(4-Chloro-2-fluorobenzyl)-N-methyl-3-(trifluoromethyl)-4,5,6,7-tetrahydro-1H-pyrazolo[3,4-c]pyridine-6-carboxamido)cyclohexanecarboxylic acid], the concentration for half-maximal inhibition (IC50) is at most 100 nM.
`O=C(O)[C@H]1CC(CC(=O)N2CCc3c(C(F)(F)F)nn(Cc4ccc(Cl)cc4F)c3C2)CN1` (stereo partly drawn) [Example 9-14, (2R)-4-(2-(1-(4-Chloro-2-fluorobenzyl)-3-(trifluoromethyl)-4,5-dihydro-1H-pyrazolo[3,4-c]pyridin-6(7H)-yl)-2-oxoethyl)pyrrolidine-2-carboxylic acid TFA salt]: the IC50 is at most 100 nM.
Regarding `O=C(C[C@H]1CC[C@@H](C(=O)O)CC1)N1CCc2c(C(F)(F)F)nn(CCC3CCCCC3)c2C1` [Example 7-21, cis-4-(2-(1-(2-Cyclohexylethyl)-3-(trifluoromethyl)-4,5-dihydro-1H-pyrazolo[3,4-c]pyridin-6(7H)-yl)-2-oxoethyl)cyclohexanecarboxylic acid], the half-inhibitory concentration (IC50) was at most 100 nM.
Regarding `CCOC(=O)[C@H]1CC[C@H](CC(=O)N2CCc3c(C(F)(F)F)nn(Cc4ccsc4)c3C2)CC1` [Example 1-45, trans-Ethyl-4-(2-oxo-2-(1-(thiophen-3-ylmethyl)-3-(trifluoromethyl)-4,5-dihydro-1H-pyrazolo[3,4-c]pyridin-6(7H)-yl)ethyl)cyclohexanecarboxylate], the IC50 was at most 100 nM.
Consider `CC(C)N1CCC(CC(=O)N2CCc3c(C(F)(F)F)nn(Cc4ccc(Cl)cc4F)c3C2)CC1` [Example 11-2, 1-(1-(4-Chloro-2-fluorobenzyl)-3-(trifluoromethyl)-4,5-dihydro-1H-pyrazolo[3,4-c]pyridin-6(7H)-yl)-2-(1-isopropylpiperidin-4-yl)ethanone HCl salt], for which the IC50 was at most 100 nM.
Turning to `O=C(C1CCCCC1)N1CCc2c(C(F)(F)F)nn(Cc3ccc(Cl)cc3F)c2C1` [Example 1-6, (1-(4-Chloro-2-fluorobenzyl)-3-(trifluoromethyl)-4,5-dihydro-1H-pyrazolo[3,4-c]pyridin-6(7H)-yl) (cyclohexyl)methanone], the IC50 was above 10000 nM.
On to `CCOc1nn(Cc2ccc(F)cc2)c2c1CCN(C(=O)C[C@H]1CC[C@H](C(=O)O)CC1)C2` [Example 5-42, trans-4-(2-(3-Ethoxy-1-(4-fluorobenzyl)-4,5-dihydro-1H-pyrazolo[3,4-c]pyridin-6(7H)-yl)-2-oxoethyl)cyclohexanecarboxylic acid], for which the concentration for half-maximal inhibition (IC50) is at most 100 nM.
On to `N[C@H]1CC[C@@H](CC(=O)N2CCc3c(C(F)(F)F)nn(Cc4ccc(F)cc4)c3C2)CC1` [Example 9-18, 2-(cis-4-Aminocyclohexyl)-1-(1-(4-fluorobenzyl)-3-(trifluoromethyl)-4,5-dihydro-1H-pyrazolo[3,4-c]pyridin-6(7H)-yl)ethanone TFA salt], for which the IC50 is at most 100 nM.
In the case of `O=C(C[C@H]1CC[C@@H](C(=O)O)CC1)N1CCc2c(C(F)(F)F)nn(Cc3ccccc3)c2C1` [Example 7-12, cis-4-(2-(1-benzyl-3-(trifluoromethyl)-4,5-dihydro-1H-pyrazolo[3,4-c]pyridin-6(7H)-yl)-2-oxoethyl)cyclohexanecarboxylic acid], the IC50 is at most 100 nM.
Consider `O=C(C[C@H]1CC[C@@H](C(=O)O)CC1)N1CCc2c(C(F)(F)F)nn(Cc3ccc(Cl)cc3Cl)c2C1` [Example 7-8, cis-4-(2-(1-(2,4-dichlorobenzyl)-3-(trifluoromethyl)-4,5-dihydro-1H-pyrazolo[3,4-c]pyridin-6(7H)-yl)-2-oxoethyl)cyclohexanecarboxylic acid], for which the IC50 is at most 100 nM.
Take `NC12CCC(CC(=O)N3CCc4c(C(F)(F)F)nn(Cc5ccc(F)cc5)c4C3)(CC1)CC2` [Example 9-10, 2-(4-Aminobicyclo[2.2.2]octan-1-yl)-1-(1-(4-fluorobenzyl)-3-(trifluoromethyl)-4,5-dihydro-1H-pyrazolo[3,4-c]pyridin-6(7H)-yl)ethanone TFA salt]: the IC50 fell in the range of 100 to 250 nM.
With `O=C(CC1CCCCC1)N1CCc2c(C(F)(F)F)nn(Cc3ccc(Cl)cc3F)c2C1` [Example 1-5, 1-(1-(4-Chloro-2-fluorobenzyl)-3-(trifluoromethyl)-4,5-dihydro-1H-pyrazolo[3,4-c]pyridin-6(7H)-yl)-2-cyclohexylethanone], the IC50 is at most 100 nM.
